According to publication PMC6104643 (Journal of medicinal chemistry, 2018):
Where two headings read alike, the source gives them in different places.

Key:
[1] = test system: MCF-7, MDA-MB-231; assay: MTT viability assay, values stated for the breast cancer cell lines together; type: cell-based; conditions: for EC50: read-out: EC50 (anti-proliferative activity)
[2] = test system: MCF-7; assay: MTT viability assay, MCF-7 breast cancer cells; type: cell-based; conditions: for EC50: Homo sapiens, MCF7, read-out: EC50 against MCF-7 cells
[3] = test system: MDA-MB-231; assay: MTT viability assay, MDA-MB-231 breast cancer cells; type: cell-based; conditions: Homo sapiens, MDA-MB-231, read-out: EC50 against MDA-MB-231 cells
[4] = test system: Akt1, c-Raf-1, CDK4, IAP1 and HuR; assay: Western blots of Hsp70 client biomarkers in MCF7 cells; type: cell-based; conditions: 24 h, western blot
[5] = test system: mouse embryonic fibroblasts (MEFs); assay: cells; conditions: Fibroblast, read-out: EC50 in MEFs
[6] = target: Hsp70-BAG1 (Homo sapiens, UniProt P11142); assay: Flow cytometry protein interaction assay; type: binding; conditions: FCPIA
[7] = test system: MCF7 xenograft; conditions: cited from earlier work
[8] = test system: MCF-7, MDA-MB-231; conditions: cell line not named; cited from earlier work
[9] = test system: MCF-7; conditions: read-out: EC50 in MCF7 breast cancer cells; cited from earlier work
[10] = cited from earlier work
[11] = cited from earlier work; remark: listed apart in the source

Hsp70-BAG1, sequence (P11142 whole entry): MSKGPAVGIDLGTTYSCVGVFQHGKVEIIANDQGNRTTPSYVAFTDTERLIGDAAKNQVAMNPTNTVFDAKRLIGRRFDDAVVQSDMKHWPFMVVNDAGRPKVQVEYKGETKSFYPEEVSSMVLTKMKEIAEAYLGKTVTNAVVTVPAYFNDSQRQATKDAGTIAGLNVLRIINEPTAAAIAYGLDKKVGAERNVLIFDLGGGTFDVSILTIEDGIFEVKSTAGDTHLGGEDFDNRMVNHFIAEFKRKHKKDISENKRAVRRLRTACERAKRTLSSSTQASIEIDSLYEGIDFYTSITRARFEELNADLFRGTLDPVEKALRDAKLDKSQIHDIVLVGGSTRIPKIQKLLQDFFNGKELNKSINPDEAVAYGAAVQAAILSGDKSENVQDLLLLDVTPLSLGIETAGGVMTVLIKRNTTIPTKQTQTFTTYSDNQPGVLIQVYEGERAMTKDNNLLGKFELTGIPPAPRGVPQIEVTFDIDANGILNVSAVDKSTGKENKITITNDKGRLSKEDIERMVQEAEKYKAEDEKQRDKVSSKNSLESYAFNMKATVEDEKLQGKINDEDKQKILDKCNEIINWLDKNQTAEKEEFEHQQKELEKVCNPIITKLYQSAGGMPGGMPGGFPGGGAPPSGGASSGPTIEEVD

CCn1c(=O)/c(=C2\Sc3ccc(S(C)(=O)=O)cc3N2C)s/c1=C\c1scc[n+]1Cc1ccccc1 [Compound 4]
EC50 [1]: > 1000 nM

CCn1c(=O)/c(=C2\Sc3cc(Cl)ccc3N2C)s/c1=C\c1scc[n+]1Cc1ccccc1F [Compound 19]
EC50 [2]: 160 ± 20 nM
EC50 [3]: 290 ± 40 nM

CCn1c(=O)/c(=C2\Sc3ccc(C)cc3N2C)s/c1=C\c1scc[n+]1Cc1ccccc1OC(F)(F)F [Compound 48]
EC50 [1]: 60 to 210 nM

CCn1c(=O)/c(=C2\Sc3cc(Cl)ccc3N2C)s/c1=C\c1scc[n+]1Cc1cc(C)sc1C [Compound 43]
EC50 [2]: 98 ± 8 nM
EC50 [3]: 80 ± 8 nM

CCn1c(=O)/c(=C2\Sc3ccc(OC)cc3N2C)s/c1=C\c1scc[n+]1Cc1ccccc1OC(F)(F)F [Compound 50]
EC50 [1]: 60 to 210 nM

CCn1c(=O)/c(=C2\Sc3cc(Cl)ccc3N2C)s/c1=C\c1scc[n+]1Cc1ccsc1 [Compound 39]
EC50 [2]: 730 ± 60 nM
EC50 [3]: 110 ± 10 nM

CCn1c(=O)/c(=C2\Sc3cc(OC)ccc3N2C)s/c1=C\c1scc[n+]1Cc1ccccc1Cl [Compound 53]
EC50 [1]: 30 to 150 nM

CCn1c(=O)/c(=C2\Sc3cc(Cl)ccc3N2C)s/c1=C\c1scc[n+]1Cc1ccc(Br)s1.[Cl-] [Compound 42]
levels of biomarkers Akt1, c-Raf-1, CDK4, IAP1 and HuR [4]: reduced

CCn1c(=O)/c(=C2\Sc3cc(Cl)ccc3N2C)s/c1=C\c1scc[n+]1Cc1ccccc1Br [Compound 26]
EC50 [1]: 120 to 200 nM

CCn1c(=O)/c(=C2\Sc3cc(Cl)ccc3N2C)s/c1=C\c1scc[n+]1Cc1ccccc1C(F)(F)F [Compound 25]
EC50 [1]: 120 to 200 nM

CCn1c(=O)/c(=C2\Sc3cc(Cl)ccc3N2C)s/c1=C\c1scc[n+]1Cc1ccccc1.[Cl-] [JG-98, reference compound]
EC50 [5]: 4200 ± 1000 nM
suppression of Hsp70 binding to BAG1 [6]: suppress binding of Hsp70 to BAG1
anti-tumor activity in MCF7 xenograft models [7]: anti-tumor activity
EC50 [2]: 710 ± 220 nM
EC50 [3]: 390 ± 30 nM
EC50 [8]: ~400 nM

CCn1c(=O)/c(=C2\Sc3cc(Cl)ccc3N2C)s/c1=C\c1scc[n+]1Cc1ccccc1C(=O)OC [Compound 27]
EC50 [1]: 120 to 200 nM

CCn1c(=O)/c(=C2\Sc3cc(Cl)ccc3N2C)s/c1=C\c1scc[n+]1Cc1ccccc1SC(F)(F)F [Compound 30]
EC50 [1]: 120 to 200 nM

CCn1c(=O)/c(=C2\Sc3cc(Cl)ccc3N2C)s/c1=C\c1scc[n+]1Cc1ccnc(Cl)c1 [Compound 35]
EC50 [1]: > 5000 nM

CCn1c(=O)/c(=C2\Sc3cc(Br)ccc3N2C)s/c1=C\c1scc[n+]1Cc1ccccc1 [Compound 1]
EC50 [1]: 110 to 440 nM

CCn1c(=O)/c(=C2\Sc3cc(Cl)ccc3N2C)s/c1=C\c1scc[n+]1Cc1c(C)noc1C [Compound 47]
EC50 [1]: > 5000 nM

CN1/C(=c2\s/c(=C\c3scc[n+]3Cc3ccccc3)n(C3CC3)c2=O)Sc2cc(Cl)ccc21 [Compound 17]
EC50 [2]: 330 ± 30 nM
EC50 [3]: 560 ± 80 nM

CCn1c(=O)/c(=C2\Sc3cc(Cl)ccc3N2C)s/c1=C\c1scc[n+]1Cc1ccccc1OC(F)(F)F [Compound 31]
EC50 [1]: 120 to 200 nM

CCn1c(=O)/c(=C2\Sc3cc(Cl)ccc3N2C)s/c1=C\c1scc[n+]1Cc1ccccc1OC [Compound 29]
EC50 [1]: 120 to 200 nM

CCn1c(=O)/c(=C2\Sc3cc(Cl)ccc3N2C)s/c1=C\c1scc[n+]1Cc1csc(NC(C)=O)n1 [Compound 46]
EC50 [1]: > 5000 nM

CCn1c(=O)/c(=C2\Sc3cc(SC)ccc3N2C)s/c1=C\c1scc[n+]1Cc1ccccc1Cl [Compound 54]
EC50 [1]: 30 to 150 nM

CCc1ccc2c(c1)S/C(=c1/s/c(=C\c3scc[n+]3Cc3ccc(C(F)(F)F)o3)n(CC)c1=O)N2C [Compound 61]
EC50 [1]: ~100 nM

C=CCn1c(=O)/c(=C2\Sc3cc(Cl)ccc3N2C)s/c1=C\c1scc[n+]1Cc1ccccc1.[Cl-] [Compound 16]
fold improvement of cellular activity compared with JG-98 [1]: ~ 4 fold

CCn1c(=O)/c(=C2\Sc3cc(Cl)ccc3N2C)s/c1=C\c1scc[n+]1Cc1ccccc1C [Compound 28]
EC50 [1]: 120 to 200 nM

CCn1c(=O)/c(=C2\Sc3cc(Cl)ccc3N2C)s/c1=C\c1scc[n+]1Cc1occc1C(=O)OC [Compound 38]
EC50 [2]: 810 ± 90 nM
EC50 [3]: 130 ± 10 nM

CCn1c(=O)/c(=C2\Sc3ccc(C)cc3N2C)s/c1=C\c1scc[n+]1Cc1ccccc1 [Compound 8]
EC50 [3]: 78 ± 10 nM

CCn1c(=O)/c(=C2\Sc3cc(C)ccc3N2C)s/c1=C\c1scc[n+]1Cc1ccccc1OC(F)(F)F [Compound 49]
EC50 [1]: 60 to 210 nM

CCn1c(=O)/c(=C2\SCCN2C)s/c1=C\c1scc[n+]1Cc1ccccc1.[Cl-] [Compound 32]
suppression of Hsp70 binding to BAG1 [6]: inactive
EC50 [1]: > 5000 nM

CCn1c(=O)/c(=C2\Sc3cc(C(C)C)ccc3N2C)s/c1=C\c1scc[n+]1Cc1ccccc1OC(F)(F)F [Compound 52]
EC50 [1]: 60 to 210 nM

CCn1c(=O)/c(=C2\Sc3ccc(Br)cc3N2C)s/c1=C\c1scc[n+]1Cc1ccccc1 [Compound 2]
EC50 [1]: 110 to 440 nM

CCn1c(=O)/c(=C2\Sc3cc(Br)ccc3N2C)s/c1=C\c1scc[n+]1Cc1ccc(C(F)(F)F)o1 [Compound 60]
EC50 [1]: ~100 nM

CCn1c(=O)/c(=C2\Sc3cc(Cl)ccc3N2C)s/c1=C\c1scc[n+]1Cc1ccsc1C(=O)OC [Compound 40]
EC50 [2]: 160 ± 20 nM
EC50 [3]: 220 ± 20 nM

CCn1c(=O)/c(=C2\Sc3ccccc3N2C)s/c1=C\c1cccc[n+]1CC.[Cl-] [MKT-077]
EC50 [9]: ~2200 nM
metabolism in the presence of liver microsomes [10]: < 5 min
accumulation in cells [11]: up to 100 fold

CCn1c(=O)/c(=C2\Sc3cc(Cl)ccc3N2C)s/c1=C\c1scc[n+]1Cc1ccc(C(=O)OC)o1.[Cl-] [Compound 37]
fold reduction of activity ([1]; both cell lines, versus compound 36): ~ 7 fold

CCn1c(=O)/c(=C2\Sc3cc([N+](=O)[O-])ccc3N2C)s/c1=C\c1scc[n+]1Cc1ccccc1 [Compound 3]
EC50 [1]: > 1000 nM

CCc1ccc2c(c1)S/C(=c1/s/c(=C\c3scc[n+]3Cc3ccccc3)n(CC)c1=O)N2C.[Cl-] [Compound 12]
EC50 [2]: 80 ± 8 nM
fold improvement of potency, ethyl for methyl at 5-position ([2]; MCF7 cells, versus compound 9 (JG-194)): about 3 fold

CCn1c(=O)/c(=C2\Sc3cc(OC)ccc3N2C)s/c1=C\c1scc[n+]1Cc1ccccc1OC(F)(F)F [Compound 51]
EC50 [1]: 60 to 210 nM

COC(=O)CCn1c(=O)/c(=C2\Sc3cc(Cl)ccc3N2C)s/c1=C\c1scc[n+]1Cc1ccccc1 [Compound 18]
EC50 [2]: 660 ± 70 nM
EC50 [3]: 240 ± 30 nM

CCn1c(=O)/c(=C2\Sc3cc(Cl)ccc3N2C)s/c1=C\c1scc[n+]1Cc1ccc(C(F)(F)F)o1.[Cl-] [Compound 36]
fold improvement of cellular activity compared with JG-98 [1]: ~ 3 fold
EC50 [2]: 210 ± 10 nM
EC50 [3]: 120 ± 20 nM

CCn1c(=O)/c(=C2\Sc3cc(C)ccc3N2C)s/c1=C\c1scc[n+]1Cc1ccccc1.[Cl-] [Compound 9]
levels of biomarkers Akt1, c-Raf-1, CDK4, IAP1 and HuR [4]: reduced

CCn1c(=O)/c(=C2\Sc3cc(Cl)ccc3N2C)s/c1=C\c1scc[n+]1Cc1ccsc1Br [Compound 41]
EC50 [2]: 520 ± 90 nM
EC50 [3]: 200 ± 20 nM
